# US20240279232A1, “USE OF SUBSTITUTED 5-(4-METHYL-6-PHENYL-4H-BENZO[F]IMIDAZO[1,5-A][1,4] DIAZEPIN-3-YL)-1,2,4-O[…] THE TREATMENT OF INFLAMMATORY CONDITIONS” (priority 2021, published 2024)
# How the values were obtained:
# [1] = system: GABAAR on immortalized human microglia; experiment: Automated patch clamp, immortalized human microglia; format: cell-based; conditions: 1 mM GABA, human cells
# Mouse microglia = experiment: NO production (Griess assay), LPS/IFNγ-activated mouse microglia; format: cell-based; conditions: dexamethasone 100 nM; GABA 1 μM; MP-IV-010 50 μM; GL-II-33 in the library screen
# [2] = system: GABAAR on immortalized mouse microglia; experiment: Automated patch clamp, immortalized mouse microglia; format: cell-based; conditions: 1 mM GABA, mouse cells
# Swiss Webster mice = experiment: Formalin test; format: in vivo, mouse; conditions: orally; GL-IV-03 10 mg/kg; ketoprofen 30 mg/kg
# Description: Webster mice were treated orally four days in advance with indicated compounds and doses before the injection of 2% formalin in the right hind paw. Mice were evaluated during the first 5 min (phase 1) and after 20 minutes (phase 2) for 5 minutes in 5 seconds intervals Licking and biting the right hind paw during a 5 second interval was noted and combined as total time addressing the injected paw. Data is given as mean with SEM (n =8). ** indicate p<0.01 (unpaired t-test).
# The antinociceptive effect of GL-IV-03 was investigated with the formalin test. Paw injections of formalin elicited a biphasic pain response separated in time (1-5 minutes and 20-60 minutes). […] Sensorimotor impairment and sedation were investigated with mice that were trained to balance on a rotating rod over a period of three minutes (rotarod). The amount of time that mice remained balanced on the rod after intraperitoneal (i.p.) and oral (p.o.) treatment with GL-IV-03 and MP-IV-010 is summarized in FIG. 7B-7C. […] The effect was similar to non-steroidal anti-inflammatory drug ketoprofen at 30 mg/kg. Sedation and inhibition of sensorimotor coordination can influence licking and biting pain behaviors, prompting rotarod studies for GL-IV-03 and MP-IV-010. […] In contrast to diazepam, a benzodiazepine with high affinity for the α1β2/3γ2 and other GABAAR subtypes, was sedating at 5 mg/kg.
# Formalin test. […]
structure (smiles),measurement,setting,value
NCCCC(=O)O [GABA],maximum current response,[1],1245 pA
same,NO production of activated microglia (in words),Mouse microglia,no effect
same,maximum current response,[2],1514 pA
"CC(C(=O)O)c1cccc(C(=O)c2ccccc2)c1 (stereo not shown) [ketoprofen, reference compound]","antinociceptive effect, formalin test (phase 1 and 2)",Swiss Webster mice,similar
